Here are results for eight molecules from ChEMBL document CHEMBL1133079, “Synthesis and antibacterial activity of novel 6-O-substituted erythromycin A derivatives” (2000).

Each structure is given as a SMILES string. In brackets after ≈: the same amount, converted by molar mass.

One test relates to Haemophilus influenzae. The test is described as follows: In vitro minimum inhibitory concentration against Haemophilus influenzae DILL using standard agar dilution method. In kind it is functional. For orientation: Agar dilution tests growth on a series of plates holding different concentrations.
Test [1] has as its system Staphylococcus aureus. The test is described as follows: In vitro minimum inhibitory concentration against Staphylococcus aureus 6538P using standard agar dilution method. In kind it is functional.
In test [2] the test system is Staphylococcus aureus. Kind of test: In vitro minimum inhibitory concentration against Staphylococcus aureus A5177. In kind it is functional.
Test [3] deals with Streptococcus pneumoniae. Kind of test: In vitro minimum inhibitory concentration against Streptococcus pneumoniae 5649. In kind it is functional.
The test system of test [4] is Streptococcus pneumoniae. Kind of test: In vitro minimum inhibitory concentration against Streptococcus pneumoniae 5737. In kind it is functional.
Test [5] relates to Streptococcus pneumoniae. The test is described as follows: In vitro minimum inhibitory concentration against Streptococcus pneumoniae ATCC 6303. In kind it is functional.
In test [6] the test system is Streptococcus pyogenes. The test is described as follows: In vitro minimum inhibitory concentration against Streptococcus pyogenes 930 using standard agar dilution method. Format: functional.
Test [7] relates to Streptococcus pyogenes. Kind of test: In vitro minimum inhibitory concentration against Streptococcus pyogenes EES61 using standard agar dilution method. In kind it is functional.
The subject of test [8] is Streptococcus pyogenes. Kind of test: In vitro minimum inhibitory concentration against Streptococcus pyogenes PIU 2548 using standard agar dilution method. In kind it is functional.
Test [9] concerns Staphylococcus aureus. Kind of test: In vitro minimum inhibitory concentration against Staphylococcus aureus A5177 using standard agar dilution method. In kind it is functional.
In test [10] the test system is Staphylococcus aureus. Kind of test: In vitro minimum inhibitory concentration against Staphylococcus aureus 6538P using standard agar dilution method.

For the molecule `CC[C@H]1OC(=O)[C@H](C)[C@@H](O[C@H]2C[C@@](C)(OC)[C@@H](O)[C@H](C)O2)[C@H](C)[C@@H](O[C@@H]2O[C@H](C)C[C@H](N(C)C)[C@H]2O)[C@@](C)(OCCNCCCc2ccccc2)C[C@@H](C)C(=O)[C@H](C)[C@@H](O)[C@]1(C)O`, the MIC is 4 µg/mL (≈ 4.47 µM) in the test on Haemophilus influenzae; 0.05 µg/mL (≈ 0.0559 µM) in the test on Staphylococcus aureus [1]; 3.1 µg/mL (≈ 3.46 µM) in the test with Staphylococcus aureus [2]; 16 µg/mL (≈ 17.9 µM) with Streptococcus pneumoniae [3]; more than 128 µg/mL with Streptococcus pneumoniae [4]; 0.03 µg/mL (≈ 0.0335 µM) against Streptococcus pneumoniae [5]. In addition, the MIC was more than 128 µg/mL in the test on Streptococcus pyogenes [6], 0.03 µg/mL (≈ 0.0335 µM) against Streptococcus pyogenes [7] and 32 µg/mL (≈ 35.7 µM) in the test with Streptococcus pyogenes [8].

In the case of `CC[C@H]1OC(=O)[C@H](C)[C@@H](O[C@H]2C[C@@](C)(OC)[C@@H](O)[C@H](C)O2)[C@H](C)[C@@H](O[C@@H]2O[C@H](C)C[C@H](N(C)C)[C@H]2O)[C@@](C)(OC/C=C/c2cccc3ccccc23)C[C@@H](C)C(=O)[C@H](C)[C@@H](O)[C@]1(C)O`, the MIC against Haemophilus influenzae stood at 4 µg/mL (≈ 4.44 µM); against Staphylococcus aureus [1], 0.78 µg/mL (≈ 0.867 µM); in the test with Staphylococcus aureus [2] it was 12.5 µg/mL (≈ 13.9 µM); in the test on Streptococcus pneumoniae [3] it was 16 µg/mL (≈ 17.8 µM); in the test on Streptococcus pneumoniae [4] it was 8 µg/mL (≈ 8.89 µM); in the test with Streptococcus pneumoniae [5], 0.25 µg/mL (≈ 0.278 µM). For the same molecule, the values for the MIC against Streptococcus pyogenes [6], against Streptococcus pyogenes [7] and against Streptococcus pyogenes [8] were 8 µg/mL (≈ 8.89 µM), 0.06 µg/mL (≈ 0.0667 µM) and 8 µg/mL (≈ 8.89 µM), respectively.

For `CC[C@H]1OC(=O)[C@H](C)[C@@H](O[C@H]2C[C@@](C)(OC)[C@@H](O)[C@H](C)O2)[C@H](C)[C@@H](O[C@@H]2O[C@H](C)C[C@H](N(C)C)[C@H]2O)[C@@](C)(OC/C=N/NC)C[C@@H](C)C(=O)[C@H](C)[C@@H](O)[C@]1(C)O`, the MIC against Haemophilus influenzae is 8 µg/mL (≈ 9.95 µM); in the test on Staphylococcus aureus [1], 0.78 µg/mL (≈ 0.97 µM); in the test with Staphylococcus aureus [2], 25 µg/mL (≈ 31.1 µM); with Streptococcus pneumoniae [3] it was 64 µg/mL (≈ 79.6 µM); in the test with Streptococcus pneumoniae [4], more than 128 µg/mL; against Streptococcus pneumoniae [5] it was 0.125 µg/mL (≈ 0.155 µM). The MIC against Streptococcus pyogenes [6] was more than 128 µg/mL; against Streptococcus pyogenes [7], 0.06 µg/mL (≈ 0.0746 µM); with Streptococcus pyogenes [8], 128 µg/mL (≈ 159 µM).

Regarding `CC[C@H]1OC(=O)C(C)[C@@H](O[C@H]2C[C@@](C)(OC)[C@@H](O)[C@H](C)O2)[C@H](C)[C@@H](O[C@@H]2O[C@H](C)C[C@H](N(C)C)[C@H]2O)[C@@](C)(OC/C=N/Oc2ccccc2)C[C@@H](C)C(=O)[C@H](C)[C@@H](O)[C@]1(C)O` (single isomer, unassigned), the MIC was 4 µg/mL (≈ 4.61 µM) in the test with Haemophilus influenzae; 0.2 µg/mL (≈ 0.231 µM) against Staphylococcus aureus [1]; 3.1 µg/mL (≈ 3.58 µM) in the test on Staphylococcus aureus [2]; 16 µg/mL (≈ 18.5 µM) against Streptococcus pneumoniae [3]; 128 µg/mL (≈ 148 µM) in the test on Streptococcus pneumoniae [4]; 0.008 µg/mL (≈ 0.00923 µM) in the test on Streptococcus pneumoniae [5]. Further, the MIC with Streptococcus pyogenes [6] was found to be 128 µg/mL (≈ 148 µM); in the test with Streptococcus pyogenes [7], 0.008 µg/mL (≈ 0.00923 µM); in the test on Streptococcus pyogenes [8], 32 µg/mL (≈ 36.9 µM).

On to `CC[C@H]1OC(=O)[C@H](C)[C@@H](O[C@H]2C[C@@](C)(OC)[C@@H](O)[C@H](C)O2)[C@H](C)[C@@H](O[C@@H]2O[C@H](C)C[C@H](N(C)C)[C@H]2O)[C@](C)(OC)C[C@@H](C)C(=O)[C@H](C)[C@@H](O)[C@]1(C)O` [CLARITHROMYCIN], for which the MIC with Haemophilus influenzae was 8 µg/mL (≈ 10.7 µM); with Staphylococcus aureus [1] it was 0.2 µg/mL (≈ 0.267 µM); in the test on Staphylococcus aureus [2] it was 6.2 µg/mL (≈ 8.29 µM); with Streptococcus pneumoniae [3] it was 16 µg/mL (≈ 21.4 µM); in the test on Streptococcus pneumoniae [4], more than 128 µg/mL; in the test with Streptococcus pneumoniae [5], 0.06 µg/mL (≈ 0.0802 µM). In addition, the MIC in the test on Streptococcus pyogenes [6] was more than 128 µg/mL; in the test on Streptococcus pyogenes [7], 0.03 µg/mL (≈ 0.0401 µM); against Streptococcus pyogenes [8], 32 µg/mL (≈ 42.8 µM).

On to `CCCO[C@@]1(C)C[C@@H](C)C(=O)[C@H](C)[C@@H](O)[C@](C)(O)[C@@H](CC)OC(=O)[C@H](C)[C@@H](O[C@H]2C[C@@](C)(OC)[C@@H](O)[C@H](C)O2)[C@H](C)[C@H]1O[C@@H]1O[C@H](C)C[C@H](N(C)C)[C@H]1O`, for which the MIC against Haemophilus influenzae was 32 µg/mL (≈ 41.2 µM); in the test on Staphylococcus aureus [9], 25 µg/mL (≈ 32.2 µM); in the test with Streptococcus pyogenes [6] it was more than 128 µg/mL; against Streptococcus pyogenes [7], 0.05 µg/mL (≈ 0.0644 µM); with Streptococcus pyogenes [8], 64 µg/mL (≈ 82.5 µM); in the test on Staphylococcus aureus [10], 3.1 µg/mL (≈ 3.99 µM).

`CC[C@H]1OC(=O)[C@H](C)[C@@H](O[C@H]2C[C@@](C)(OC)[C@@H](O)[C@H](C)O2)[C@H](C)[C@@H](O[C@@H]2O[C@H](C)C[C@H](N(C)C)[C@H]2O)[C@@](C)(OCCO)C[C@@H](C)C(=O)[C@H](C)[C@@H](O)[C@]1(C)O`: the MIC was 8 µg/mL (≈ 10.3 µM) in the test on Haemophilus influenzae; 0.39 µg/mL (≈ 0.501 µM) in the test on Staphylococcus aureus [1]; 6.2 µg/mL (≈ 7.97 µM) in the test with Staphylococcus aureus [2]; 32 µg/mL (≈ 41.1 µM) in the test with Streptococcus pneumoniae [3]; more than 64 µg/mL with Streptococcus pneumoniae [4]; 0.125 µg/mL (≈ 0.161 µM) in the test on Streptococcus pneumoniae [5]. Besides, the MIC against Streptococcus pyogenes [6] is more than 64 µg/mL; in the test on Streptococcus pyogenes [7], 0.125 µg/mL (≈ 0.161 µM); in the test on Streptococcus pyogenes [8] it was 64 µg/mL (≈ 82.3 µM).

With `CC[C@H]1OC(=O)[C@H](C)[C@@H](O[C@H]2C[C@@](C)(OC)[C@@H](O)[C@H](C)O2)[C@H](C)[C@@H](O[C@@H]2O[C@H](C)C[C@H](N(C)C)[C@H]2O)[C@@](C)(OC/C=N/OC)C[C@@H](C)C(=O)[C@H](C)[C@@H](O)[C@]1(C)O`, the MIC in the test with Haemophilus influenzae is 16 µg/mL (≈ 19.9 µM); against Staphylococcus aureus [1], 0.78 µg/mL (≈ 0.969 µM); in the test with Staphylococcus aureus [2], 25 µg/mL (≈ 31.1 µM); in the test on Streptococcus pneumoniae [3], 32 µg/mL (≈ 39.8 µM); in the test with Streptococcus pneumoniae [4] it was more than 128 µg/mL; against Streptococcus pneumoniae [5] it was 0.125 µg/mL (≈ 0.155 µM). For the same molecule, the MIC in the test on Streptococcus pyogenes [6] is more than 128 µg/mL; in the test with Streptococcus pyogenes [7], 0.125 µg/mL (≈ 0.155 µM); in the test on Streptococcus pyogenes [8], 64 µg/mL (≈ 79.5 µM).
